Measurements: the NIST ThermoML archive (doi:10.1016/j.fluid.2018.08.011)
Several values for one entry are separate records, joined by “and”; a condition that tells them apart may be missing. Identical values can stand only once. ± gives the expanded uncertainty stated by the source.

Key:
[1] = cn = amount concentration of the nth substance listed, in mol/dm3; conditions: Drop volume
[2] = for surface tension liquid-gas: Drop volume; for mass density / speed of sound: 101.3 kPa, Liquid; for mass density: Vibrating tube method; for speed of sound: Frequency=3 MHz, Single path-length method

## CCCCCCCCCCCCO[C@@H]1O[C@H](CO)[C@@H](O)[C@H](O)[C@H]1O [dodecyl beta.-D-glucopyranoside] + O
[1]; 310.15 K, c1 = 2.33e-05
  surface tension liquid-gas: 52.97 ± 0.25 mN/m
[1]; 310.15 K, c1 = 3.58e-05
  surface tension liquid-gas: 46.13 ± 0.23 mN/m
[1]; 310.15 K, c1 = 5.16e-05
  surface tension liquid-gas: 41.28 ± 0.22 mN/m
[1]; 310.15 K, c1 = 6.49e-05
  surface tension liquid-gas: 38.47 ± 0.21 mN/m
[1]; 310.15 K, c1 = 7.97e-05
  surface tension liquid-gas: 35.61 ± 0.2 mN/m
[1]; 310.15 K, c1 = 9.31e-05
  surface tension liquid-gas: 34.42 ± 0.19 mN/m
[1]; 310.15 K, c1 = 0.000106
  surface tension liquid-gas: 33.04 ± 0.19 mN/m
[1]; 310.15 K, c1 = 0.000123
  surface tension liquid-gas: 31.7 ± 0.19 mN/m
[1]; 310.15 K, c1 = 0.000131
  surface tension liquid-gas: 31.19 ± 0.19 mN/m
[1]; 310.15 K, c1 = 0.000146
  surface tension liquid-gas: 29.75 ± 0.18 mN/m
[1]; 310.15 K, c1 = 0.000162
  surface tension liquid-gas: 30.12 ± 0.18 mN/m
[1]; 310.15 K, c1 = 0.000169
  surface tension liquid-gas: 29.25 ± 0.18 mN/m
[1]; 310.15 K, c1 = 0.000177
  surface tension liquid-gas: 29.51 ± 0.18 mN/m
[1]; 310.15 K, c1 = 0.000187
  surface tension liquid-gas: 29.14 ± 0.18 mN/m
[1]; 310.15 K, c1 = 0.000198
  surface tension liquid-gas: 29.09 ± 0.18 mN/m
[1]; 310.15 K, c1 = 0.00021
  surface tension liquid-gas: 29.52 ± 0.18 mN/m
[1]; 310.15 K, c1 = 0.000216
  surface tension liquid-gas: 29.36 ± 0.18 mN/m
[1]; 310.15 K, c1 = 0.000227
  surface tension liquid-gas: 29.03 ± 0.18 mN/m
[1]; 310.15 K, c1 = 0.000241
  surface tension liquid-gas: 29.02 ± 0.18 mN/m
[1]; 310.15 K, c1 = 0.000258
  surface tension liquid-gas: 29.1 ± 0.18 mN/m
[1]; 323.15 K, c1 = 2.33e-05
  surface tension liquid-gas: 52.98 ± 0.24 mN/m
[1]; 323.15 K, c1 = 3.58e-05
  surface tension liquid-gas: 46.38 ± 0.23 mN/m
[1]; 323.15 K, c1 = 5.16e-05
  surface tension liquid-gas: 41.5 ± 0.22 mN/m
[1]; 323.15 K, c1 = 6.49e-05
  surface tension liquid-gas: 38.5 ± 0.2 mN/m
[1]; 323.15 K, c1 = 9.31e-05
  surface tension liquid-gas: 35.04 ± 0.2 mN/m
[1]; 323.15 K, c1 = 0.000106
  surface tension liquid-gas: 33.77 ± 0.19 mN/m
[1]; 323.15 K, c1 = 0.000123
  surface tension liquid-gas: 32.19 ± 0.19 mN/m
[1]; 323.15 K, c1 = 0.000131
  surface tension liquid-gas: 31.35 ± 0.19 mN/m
[1]; 323.15 K, c1 = 0.000146
  surface tension liquid-gas: 29.99 ± 0.18 mN/m
[1]; 323.15 K, c1 = 0.000162
  surface tension liquid-gas: 29.72 ± 0.18 mN/m
[1]; 323.15 K, c1 = 0.000169
  surface tension liquid-gas: 28.68 ± 0.18 mN/m
[1]; 323.15 K, c1 = 0.000177
  surface tension liquid-gas: 28.83 ± 0.18 mN/m
[1]; 323.15 K, c1 = 0.000187
  surface tension liquid-gas: 28.4 ± 0.18 mN/m
[1]; 323.15 K, c1 = 0.000198
  surface tension liquid-gas: 28 ± 0.17 mN/m
[1]; 323.15 K, c1 = 0.00021
  surface tension liquid-gas: 28.11 ± 0.17 mN/m
[1]; 323.15 K, c1 = 0.000216
  surface tension liquid-gas: 28.07 ± 0.18 mN/m
[1]; 323.15 K, c1 = 0.000227
  surface tension liquid-gas: 28.56 ± 0.17 mN/m
[1]; 323.15 K, c1 = 0.000241
  surface tension liquid-gas: 28.29 ± 0.18 mN/m
[1]; 323.15 K, c1 = 0.000258
  surface tension liquid-gas: 27.87 ± 0.18 mN/m

## O [water]
[2]; 283.15 K
  surface tension liquid-gas: 73.92 ± 0.28 mN/m
  mass density: 999.707 ± 0.033 kg/m3
[2]; 285.65 K
  speed of sound: 1457.3 ± 0.24 m/s
  mass density: 999.444 ± 0.033 kg/m3
[2]; 290.65 K
  speed of sound: 1474.7 ± 0.23 m/s
  mass density: 998.689 ± 0.034 kg/m3
[2]; 295.65 K
  speed of sound: 1490 ± 0.23 m/s
  mass density: 997.658 ± 0.034 kg/m3
[2]; 298.15 K
  surface tension liquid-gas: 71.77 ± 0.28 mN/m
[2]; 300.65 K
  speed of sound: 1503.3 ± 0.23 m/s
  mass density: 996.376 ± 0.035 kg/m3
[2]; 305.65 K
  speed of sound: 1514.9 ± 0.23 m/s
  mass density: 994.867 ± 0.036 kg/m3
[2]; 310.15 K
  surface tension liquid-gas: 70.13 ± 0.27 mN/m and 69.93 ± 0.39 mN/m
[2]; 310.65 K
  speed of sound: 1524.7 ± 0.23 m/s
  mass density: 993.147 ± 0.036 kg/m3
[2]; 313.15 K
  speed of sound: 1529 ± 0.23 m/s
[2]; 315.65 K
  speed of sound: 1533 ± 0.23 m/s
  mass density: 991.235 ± 0.037 kg/m3
[2]; 318.15 K
  speed of sound: 1536.6 ± 0.23 m/s
[2]; 320.65 K
  speed of sound: 1539.8 ± 0.23 m/s
  mass density: 989.14 ± 0.038 kg/m3
[2]; 323.15 K
  surface tension liquid-gas: 68.15 ± 0.27 mN/m and 67.79 ± 0.39 mN/m
  mass density: 988.029 ± 0.039 kg/m3

## O [water] + CCCCCCCCCCCCO[C@@H]1O[C@H](CO)[C@@H](O)[C@H](O)[C@H]1O
[1]; 310.15 K, c2 = 0
  surface tension liquid-gas: 69.93 ± 0.27 mN/m
[1]; 323.15 K, c2 = 0
  surface tension liquid-gas: 67.79 ± 0.27 mN/m
